Assay results from patent US20070238762A1, “Use of Antagonists of Hepatic Sympathetic Nerve Activity” (DiaMedica Inc., priority 2003, published 2007).

Tests used:
Sprague Dawley rats [1] = test: Rapid insulin sensitivity test (RIST) following 24 hour fast; type: in vivo, rat; conditions: male rats fasted 24 hours; constant i.v. infusion of phentolamine; FIG. 3
Description: HISS-dependent and HISS-independent insulin action can be most readily quantitated using the rapid insulin sensitivity test (RIST) which is a transient euglycemic clamp in response to a bolus administration of insulin. […] The RIST method uses variable glucose infusion rates to maintain the blood glucose level constant. The amount of glucose required to be administered in order to maintain the glycemic baseline is the index of insulin sensitivity and is referred to as the RIST index. The RIST index produced by this procedure consists of a HISS-dependent component and a HISS-independent component that can be readily differentiated by testing in the control fed state and then repeating the test after blockade of HISS release by any of a number of means including surgical denervation of the liver, blockade of hepatic muscarinic receptors, blockade of hepatic nitric oxide production, or blockade of hepatic cyclooxygenase. […] Blockade of HISS release results in HDIR. […] In order to determine whether HISS played a role in controlling glycogenolysis in response to acute trauma, fully anesthetized, fed, male, Sprague Dawley rats were prepared surgically according to the standard animal preparation used to conduct a rapid insulin sensitivity test (RIST) (Lautt et al., 1998). […] Blood was then withdrawn at a rate of 0.5 ml/min to decrease arterial pressure to 50 mm Hg. […]

Sprague Dawley rats [2] = test: Rapid insulin sensitivity test (RIST) following 18 hour fast; type: in vivo, rat; conditions: male rats fasted 18 hours; bolus 600 μg/kg ipv phentolamine; FIG. 4
Method: Blockade of HISS release results in HDIR.
Male, Sprague Dawley rats were fed normal rat pellets and then fasted for a 18-hour period (with free access to water) prior to administration of pentobarbital sodium anesthesia and standard RIST methodology surgical preparation as described in Example One.
Following fasting, the animals were administered a bolus dose of 600 μg/kg ipv of phentolamine or a bolus dose of 600 μg/kg ipv of phentolamine and 5 μg/kg ipv of arecoline.

Cc1ccc(N(CC2=NCCN2)c2cccc(O)c2)cc1 [phentolamine]
insulin action (RIST) (Sprague Dawley rats [1]): significantly restored toward normal levels
insulin action (RIST) (Sprague Dawley rats [2]): restoration of insulin action
